Experimental data taken from PubChem BioAssay (NCI).
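Exposure lasted 48 hours, with cells grown in 96-well plates and compounds tested at five concentrations. GI50: concentration for 50% inhibition of growth. The concentration for full growth arrest is given as TGI.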

Key:
Test in all cases: NCI anticancer screen, dose series, 48 h
HCT-116 colon = tested on: HCT-116 colon
KM12 colon = tested on: KM12 colon
OVCAR-5 ovarian = tested on: OVCAR-5 ovarian
RXF 393 renal = tested on: RXF 393 renal
SF-295 CNS = tested on: SF-295 CNS
TK-10 renal = tested on: TK-10 renal
UACC-257 melanoma = tested on: UACC-257 melanoma
SK-MEL-5 melanoma = tested on: SK-MEL-5 melanoma
SNB-75 CNS = tested on: SNB-75 CNS
MDA-MB-231 breast = tested on: MDA-MB-231 breast

CSC(=O)C[C@@]12O[C@@H]([C@@H](C)C3CCC4[C@@H]5C(O)CC6=CC(=O)C=C[C@]6(C)C5CC[C@@]43C)C[C@](C)(O1)C(C)(C)O2 (stereo not given in full)
TGI (HCT-116 colon): 26.4 µM | TGI (KM12 colon): 32.9 µM | TGI (OVCAR-5 ovarian): 31.8 µM | TGI (RXF 393 renal): 24.4 µM | TGI (SF-295 CNS): 28.6 µM | TGI (TK-10 renal): 34.8 µM | TGI (UACC-257 melanoma): 26.9 µM

CCN(CC)CCN(CC)CC.CCN(CC)CCN(CC)CC.[Cu+2].[Cu+2].[O-][Cl+3]([O-])([O-])[O-].[OH3+].[OH3+]
GI50 (HCT-116 colon): 40.2 µM | TGI (HCT-116 colon): > 100 µM | GI50 (KM12 colon): 18.2 µM | TGI (KM12 colon): 34.2 µM | GI50 (SF-295 CNS): 34.4 µM | TGI (SF-295 CNS): 98.9 µM | GI50 (SK-MEL-5 melanoma): 15.6 µM | TGI (SK-MEL-5 melanoma): 29.5 µM | GI50 (SNB-75 CNS): 23.6 µM | TGI (SNB-75 CNS): 39.4 µM | GI50 (TK-10 renal): 96.7 µM | TGI (TK-10 renal): > 100 µM | GI50 (UACC-257 melanoma): > 100 µM | TGI (UACC-257 melanoma): > 100 µM

CCOC(=O)C12CCCC1(O)N(NC(=O)OC)C(C)=C2C(=O)OC (stereo not given)
TGI (HCT-116 colon): > 100 µM | TGI (KM12 colon): > 10 µM | TGI (OVCAR-5 ovarian): > 100 µM | TGI (SF-295 CNS): > 10 µM | TGI (TK-10 renal): > 100 µM | TGI (UACC-257 melanoma): > 100 µM

CN(C)c1ccc(/C=N/NC(N)=S)nc1
GI50 (HCT-116 colon): 3.3 µM | TGI (HCT-116 colon): > 100 µM | GI50 (KM12 colon): 3.49 µM | TGI (KM12 colon): > 100 µM | GI50 (MDA-MB-231 breast): 5.43 µM | TGI (MDA-MB-231 breast): > 100 µM | GI50 (RXF 393 renal): 4.16 µM | TGI (RXF 393 renal): > 100 µM | GI50 (SF-295 CNS): 2.91 µM | TGI (SF-295 CNS): 16.1 µM | GI50 (SK-MEL-5 melanoma): 2.52 µM | TGI (SK-MEL-5 melanoma): > 100 µM | GI50 (SNB-75 CNS): 1.82 µM | TGI (SNB-75 CNS): > 100 µM | GI50 (TK-10 renal): 7.61 µM | TGI (TK-10 renal): > 100 µM | GI50 (UACC-257 melanoma): 24.4 µM | TGI (UACC-257 melanoma): > 100 µM

NC(=S)N/N=C/c1ccc(OC(=O)COc2cc(Cl)c(Cl)cc2Cl)cn1
GI50 (HCT-116 colon): 4.25 µM | TGI (HCT-116 colon): > 100 µM | GI50 (KM12 colon): 5.68 µM | TGI (KM12 colon): > 100 µM | GI50 (MDA-MB-231 breast): 4.53 µM | TGI (MDA-MB-231 breast): > 100 µM | GI50 (OVCAR-5 ovarian): 50.7 µM | TGI (OVCAR-5 ovarian): > 100 µM | GI50 (RXF 393 renal): 3.16 µM | TGI (RXF 393 renal): 21.4 µM | GI50 (SK-MEL-5 melanoma): 3.42 µM | TGI (SK-MEL-5 melanoma): 59.6 µM | GI50 (TK-10 renal): 41.9 µM | TGI (TK-10 renal): > 100 µM | GI50 (UACC-257 melanoma): 11 µM | TGI (UACC-257 melanoma): 51.5 µM

CC(C)(C)C(=O)N1C(C(=O)O)Cc2ccccc2[C@@H]1Cc1ccccc1 (stereo not given in full)
TGI (HCT-116 colon): > 100 µM | TGI (KM12 colon): > 100 µM | TGI (OVCAR-5 ovarian): > 100 µM | TGI (RXF 393 renal): > 100 µM | TGI (SF-295 CNS): > 100 µM | TGI (SK-MEL-5 melanoma): > 100 µM | TGI (SNB-75 CNS): > 100 µM | TGI (TK-10 renal): > 100 µM | TGI (UACC-257 melanoma): > 100 µM

CSC(=NC(=O)c1ccccc1Cl)SCCSC(=NC(=O)c1ccccc1Cl)SC
TGI (HCT-116 colon): > 100 µM | TGI (KM12 colon): > 100 µM | TGI (OVCAR-5 ovarian): > 100 µM | TGI (RXF 393 renal): > 100 µM | TGI (SF-295 CNS): > 100 µM | TGI (SK-MEL-5 melanoma): > 100 µM | TGI (SNB-75 CNS): > 100 µM | TGI (TK-10 renal): > 100 µM | TGI (UACC-257 melanoma): > 100 µM

CCOC(=O)c1ccc(-n2cnc(-c3ccc([N+](=O)[O-])cc3)c2)cc1
TGI (HCT-116 colon): > 100 µM | TGI (KM12 colon): > 100 µM | TGI (MDA-MB-231 breast): > 100 µM | TGI (OVCAR-5 ovarian): > 100 µM | TGI (SF-295 CNS): > 100 µM | TGI (SK-MEL-5 melanoma): 74.5 µM | TGI (SNB-75 CNS): > 100 µM | TGI (TK-10 renal): > 100 µM | TGI (UACC-257 melanoma): > 100 µM

CCC1=C(c2ccc(OC)cc2)C(C)(C)Oc2c1ccc(O)c2CN1CCCC1
GI50 (KM12 colon): 1.91 µM | TGI (KM12 colon): 3.9 µM | GI50 (MDA-MB-231 breast): 2.39 µM | TGI (MDA-MB-231 breast): 4.97 µM | GI50 (OVCAR-5 ovarian): 4.1 µM | TGI (OVCAR-5 ovarian): 29.4 µM | GI50 (RXF 393 renal): 1.24 µM | TGI (RXF 393 renal): 3.87 µM | GI50 (SF-295 CNS): 2.33 µM | TGI (SF-295 CNS): 6.01 µM | GI50 (SK-MEL-5 melanoma): 1.3 µM | TGI (SK-MEL-5 melanoma): 2.57 µM | GI50 (SNB-75 CNS): 1.66 µM | TGI (SNB-75 CNS): 87.4 µM | GI50 (TK-10 renal): 5.26 µM | TGI (TK-10 renal): 31.3 µM | GI50 (UACC-257 melanoma): 1.78 µM | TGI (UACC-257 melanoma): 3.85 µM

Cc1cccc(-c2nnc3s/c(=C\c4ccc(N(C)C)cc4)c(=O)n23)c1
TGI (HCT-116 colon): > 100 µM | TGI (KM12 colon): > 100 µM | TGI (OVCAR-5 ovarian): > 100 µM | TGI (RXF 393 renal): > 100 µM | TGI (SF-295 CNS): > 100 µM | TGI (SK-MEL-5 melanoma): > 100 µM | TGI (SNB-75 CNS): > 100 µM | TGI (TK-10 renal): > 100 µM | TGI (UACC-257 melanoma): > 100 µM

Cc1ccc(OCC2CO2)c(Br)c1 (stereo not given)
TGI (HCT-116 colon): 73.3 µM | TGI (KM12 colon): > 100 µM | TGI (MDA-MB-231 breast): 58 µM | TGI (OVCAR-5 ovarian): 34.6 µM | TGI (RXF 393 renal): 26.5 µM | TGI (SF-295 CNS): 63.7 µM | TGI (SK-MEL-5 melanoma): 60.5 µM | TGI (TK-10 renal): > 100 µM | TGI (UACC-257 melanoma): > 100 µM

CSc1cc([C@@H]2C[C@H]2c2ccc(Cl)cc2)on1
GI50 (HCT-116 colon): 17.4 µM | TGI (HCT-116 colon): 67.8 µM | GI50 (KM12 colon): 14.5 µM | TGI (KM12 colon): 30.3 µM | GI50 (MDA-MB-231 breast): 5.51 µM | TGI (MDA-MB-231 breast): 21.7 µM | GI50 (OVCAR-5 ovarian): 14.5 µM | TGI (OVCAR-5 ovarian): 35.2 µM | GI50 (RXF 393 renal): 2.14 µM | TGI (RXF 393 renal): 12.6 µM | GI50 (SF-295 CNS): 34.1 µM | TGI (SF-295 CNS): 69.2 µM | GI50 (SNB-75 CNS): 21.3 µM | TGI (SNB-75 CNS): 49.5 µM | GI50 (TK-10 renal): 12.5 µM | TGI (TK-10 renal): 31.5 µM | GI50 (UACC-257 melanoma): 15.8 µM | TGI (UACC-257 melanoma): 35.6 µM

Cc1cc(OCc2nnc3n2S(=O)(=O)c2ccccc2N3C)ccc1Cl
TGI (HCT-116 colon): > 100 µM | TGI (KM12 colon): > 100 µM | TGI (MDA-MB-231 breast): 41.7 µM | TGI (OVCAR-5 ovarian): > 100 µM | TGI (RXF 393 renal): 60.1 µM | TGI (SF-295 CNS): 50.2 µM | TGI (SK-MEL-5 melanoma): > 100 µM | TGI (TK-10 renal): > 100 µM | TGI (UACC-257 melanoma): > 100 µM

c1ccc(SC(Sc2ccccc2)=C2CCC2)cc1
TGI (HCT-116 colon): > 100 µM | TGI (KM12 colon): > 100 µM | TGI (RXF 393 renal): > 100 µM | TGI (SF-295 CNS): > 100 µM | TGI (SK-MEL-5 melanoma): > 100 µM | TGI (SNB-75 CNS): > 100 µM | TGI (TK-10 renal): > 100 µM | TGI (UACC-257 melanoma): > 100 µM

O=[N+]([O-])c1nccn1CC(O)c1ccccc1 (stereo not given)
TGI (KM12 colon): > 100 µM | TGI (OVCAR-5 ovarian): > 100 µM | TGI (RXF 393 renal): > 100 µM | TGI (SF-295 CNS): > 100 µM | TGI (SK-MEL-5 melanoma): > 100 µM | TGI (SNB-75 CNS): > 100 µM | TGI (TK-10 renal): > 100 µM | TGI (UACC-257 melanoma): > 100 µM

CCOC(=O)C1(C(=O)OCC)C(C(C)(C)C)=C(C)c2ccccc21
TGI (HCT-116 colon): 20.2 µM | TGI (KM12 colon): 25.9 µM | TGI (OVCAR-5 ovarian): 31.4 µM | TGI (RXF 393 renal): 26.6 µM | TGI (SF-295 CNS): 30.2 µM | TGI (SK-MEL-5 melanoma): 21.8 µM | TGI (SNB-75 CNS): 61.8 µM | TGI (TK-10 renal): 72.4 µM | TGI (UACC-257 melanoma): 44.3 µM

Cc1ccc(NCC2(/N=C/c3ccccc3)OC(CO)C(O)C2O)cc1 (stereo not given)
TGI (HCT-116 colon): > 100 µM | TGI (KM12 colon): > 100 µM | TGI (OVCAR-5 ovarian): > 100 µM | TGI (SF-295 CNS): > 100 µM | TGI (SK-MEL-5 melanoma): > 100 µM | TGI (SNB-75 CNS): > 100 µM | TGI (TK-10 renal): > 100 µM | TGI (UACC-257 melanoma): > 100 µM

C=CCC1(C(=O)OC)CCC/C(=N\O)C1 (stereo not given)
TGI (HCT-116 colon): > 10 µM | TGI (KM12 colon): > 10 µM | TGI (MDA-MB-231 breast): > 10 µM | TGI (SF-295 CNS): > 10 µM | TGI (SK-MEL-5 melanoma): > 10 µM | TGI (SNB-75 CNS): > 10 µM | TGI (TK-10 renal): > 10 µM | TGI (UACC-257 melanoma): > 10 µM

CN(C)c1ccc(/C=c2\sc3nnc(-c4ccco4)n3c2=O)cc1
TGI (HCT-116 colon): > 100 µM | TGI (KM12 colon): > 100 µM | TGI (OVCAR-5 ovarian): > 100 µM | TGI (RXF 393 renal): > 100 µM | TGI (SF-295 CNS): > 100 µM | TGI (SK-MEL-5 melanoma): > 100 µM | TGI (SNB-75 CNS): > 100 µM | TGI (TK-10 renal): > 100 µM | TGI (UACC-257 melanoma): > 100 µM

O=C(C[n+]1ccccc1)N/N=C(/CCC(=O)N(Cc1ccccc1)Cc1ccccc1)CC(=O)c1ccccc1
TGI (HCT-116 colon): > 100 µM | TGI (KM12 colon): > 100 µM | TGI (OVCAR-5 ovarian): > 100 µM | TGI (RXF 393 renal): > 100 µM | TGI (SF-295 CNS): > 100 µM | TGI (SK-MEL-5 melanoma): > 100 µM | TGI (SNB-75 CNS): > 100 µM | TGI (TK-10 renal): > 100 µM | TGI (UACC-257 melanoma): > 100 µM
